BindingDB's records for doi:10.1080/14756360600991017 (University of Athens, 2007)

molecular target: T1, Seed linoleate 13S-lipoxygenase-1 (Glycine max, UniProt P08170); test: Inhibition Assay; details: 25 °C
T1 sequence (P08170 whole entry): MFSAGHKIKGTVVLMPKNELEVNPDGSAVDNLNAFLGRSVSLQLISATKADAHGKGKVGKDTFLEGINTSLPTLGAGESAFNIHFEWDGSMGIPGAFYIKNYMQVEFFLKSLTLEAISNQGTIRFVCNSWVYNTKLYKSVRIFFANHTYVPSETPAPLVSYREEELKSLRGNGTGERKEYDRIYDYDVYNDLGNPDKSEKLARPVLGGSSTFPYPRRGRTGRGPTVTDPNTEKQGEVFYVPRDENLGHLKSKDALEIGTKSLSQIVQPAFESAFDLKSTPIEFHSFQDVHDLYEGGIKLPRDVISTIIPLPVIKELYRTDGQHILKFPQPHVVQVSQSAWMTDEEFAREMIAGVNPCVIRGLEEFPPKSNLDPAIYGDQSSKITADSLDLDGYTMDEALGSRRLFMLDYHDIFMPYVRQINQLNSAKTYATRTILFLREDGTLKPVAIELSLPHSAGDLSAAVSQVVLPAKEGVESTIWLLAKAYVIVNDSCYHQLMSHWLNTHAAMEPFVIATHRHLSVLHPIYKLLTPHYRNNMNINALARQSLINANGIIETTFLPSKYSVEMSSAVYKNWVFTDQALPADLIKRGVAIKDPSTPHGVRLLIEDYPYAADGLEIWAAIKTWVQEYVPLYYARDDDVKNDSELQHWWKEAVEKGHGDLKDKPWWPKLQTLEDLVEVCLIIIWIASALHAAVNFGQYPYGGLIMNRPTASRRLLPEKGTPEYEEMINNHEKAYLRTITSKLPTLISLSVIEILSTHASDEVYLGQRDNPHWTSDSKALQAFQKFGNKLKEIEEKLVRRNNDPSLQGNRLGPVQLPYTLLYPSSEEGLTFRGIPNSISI
Description: soybean lipoxygenase and linoleic acid sodium salt were obtained from Sigma Chemical, Co. in St. Louis, MO. Each experiment of the in vitro assay was performed at least in triplicate and the standard deviation of absorbance was less than 10% of the mean.

IC50 [µM] | SMILES
1000 | O=C(/C=C/c1ccc(O)c2c1C(C(=O)O[C@@H](Cc1ccc(O)c(O)c1)C(=O)O)[C@@H](c1ccc(O)c(O)c1)O2)O[C@H](Cc1ccc(O)c(O)c1)C(=O)O (some centres undefined) [Lithospermic acid, 3]
560 | O=C(O)C[C@H]1CCC(=O)[C@@H]1C/C=C/CCO[C@H]1OC(CO)[C@H](O)C(O)[C@H]1O (some centres undefined) [12-hydroxy-jasmonic acid 12-O-B-glucoside, 4]
1150 | O=C(/C=C/c1ccc(O)c(O)c1)O[C@H](Cc1ccc(O)c(O)c1)C(=O)O [Rosmarinic acid, 2]
360 | CC(C)C1=C[C@H](O)[C@@](C)(O[C@@H]2OC(CO)[C@@H](O)[C@H](O)C2O)CC1 (some centres undefined) [p-menth-3-ene-1,2-diol 1-O-B-glucopyranoside, 5]
